# Measured values from patent publication US12331048B2, “Pyrido-[3,4-d]pyridazine amine derivatives useful as NLRP3 inhibitors” (Ventus Therapeutics U.S., Inc., priority 2022, dated 2025).
# Like-named read-outs stand apart in the source and are kept apart here.
# Columns and labels:
# NLRP3 = target: T1, NLRP3 (Homo sapiens, UniProt Q96P20); assay: Human whole blood (hWB) NLRP3 assay; format: cell-based; settings: LPS priming 1 μg/ml, ATP activation, read-out: hWB IC50 (raw activity data)
# T1 construct: endogenous in cells
# T1 sequence (Q96P20 whole entry): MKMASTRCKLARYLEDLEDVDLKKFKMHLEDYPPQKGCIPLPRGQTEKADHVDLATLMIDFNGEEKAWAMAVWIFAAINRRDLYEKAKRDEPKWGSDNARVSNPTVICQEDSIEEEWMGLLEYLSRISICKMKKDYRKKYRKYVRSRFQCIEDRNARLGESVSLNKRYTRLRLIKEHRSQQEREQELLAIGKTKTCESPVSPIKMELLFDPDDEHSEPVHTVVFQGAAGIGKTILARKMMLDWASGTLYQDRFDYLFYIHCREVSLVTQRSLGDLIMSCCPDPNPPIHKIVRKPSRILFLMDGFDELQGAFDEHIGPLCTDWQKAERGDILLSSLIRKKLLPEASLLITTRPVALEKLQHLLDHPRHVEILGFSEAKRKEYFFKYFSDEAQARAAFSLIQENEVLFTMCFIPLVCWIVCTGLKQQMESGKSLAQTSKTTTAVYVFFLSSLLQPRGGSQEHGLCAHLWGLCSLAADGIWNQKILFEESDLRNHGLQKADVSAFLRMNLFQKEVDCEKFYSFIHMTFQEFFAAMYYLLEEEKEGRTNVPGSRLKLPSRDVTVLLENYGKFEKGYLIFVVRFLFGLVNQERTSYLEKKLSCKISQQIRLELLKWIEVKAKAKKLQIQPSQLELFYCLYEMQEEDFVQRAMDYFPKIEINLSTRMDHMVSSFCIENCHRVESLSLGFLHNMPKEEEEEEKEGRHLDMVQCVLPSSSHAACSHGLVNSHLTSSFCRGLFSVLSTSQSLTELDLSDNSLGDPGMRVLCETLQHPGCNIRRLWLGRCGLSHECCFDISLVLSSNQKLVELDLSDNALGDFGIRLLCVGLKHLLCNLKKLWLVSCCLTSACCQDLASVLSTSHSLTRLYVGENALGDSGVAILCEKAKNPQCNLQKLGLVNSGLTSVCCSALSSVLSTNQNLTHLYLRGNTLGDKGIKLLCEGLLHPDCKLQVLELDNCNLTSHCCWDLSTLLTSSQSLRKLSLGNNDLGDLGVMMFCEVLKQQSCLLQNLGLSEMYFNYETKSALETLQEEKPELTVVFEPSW
# Protocol: Heparin lithium coated tubes were used to collect blood from volunteers. Blood samples were distributed on 96 well plates using 90 μl per well. Priming was performed by adding 5 μl of LPS (O26:B6; Sigma L-2654) at a final concentration of 1 μg/ml for 4.5 hours in a humidified incubator with 37° C., 5% CO2. Thirty minutes prior to NLRP3 activation, 5 μl of a 20× compound solution or vehicle (2% DMSO) was added to each well and plates were incubated on a shaker (450 rpm) in a humidified incubator with 37° C., 5% CO2. Activation was then performed by adding 3.3 μl of a 31×ATP solution per well. At the end of the 30 minutes stimulation, the plates were centrifuged (800 g, 10 min. room temperature) and the plasma from each well was frozen at −80° C. […] levels in the supernatant were analyzed using a mesoscale discovery assay (MSD K151TUK) according to the manufacturers' instructions. Human whole blood was drawn from healthy volunteers after obtaining written informed consent.
# Table D assigns each compound a code for potency in the human whole blood (hWB) NLRP3 Assay: A or B. According to the code. […] The corresponding raw activity data is also included.
# [1] = Brain levels (kp and kpu,u) after oral administration; format: in vivo, CDI mice; settings: mice, 20 mpk PO; for Kp at 24 h / Kpu,u (unbound brain-to-plasma ratio): CDI, mouse, brain / plasma, po, 20 mg/kg
# Protocol: The in vivo total brain to plasma ratio was assessed in CDI mice after oral administration of the compound. Blood was collected at several timepoints up to 24 h, and transferred into plastic micro centrifuge tubes with EDTA-K2 as anticoagulant. Blood samples were centrifuged at 4000 g for 5 minutes at 4° C. to obtain plasma, then immediately frozen and stored at −75±15° C. prior to analysis. Animals were terminally anaesthetized with a rising concentration of CO2 gas at about 1 minute. At selected timepoints, whole brains were removed from the skull, rinsed in cold PBS to remove blood, dried with clean gauze, then frozen in liquid nitrogen and kept at −75±15° C. before analysis. At the time of analysis, brain samples were homogenized with PBS by tissue weight (g) to PBS volume (mL) ratio 1:3. Plasma and brain drug levels were quantified by LC/MS/MS on a AB Sciex Triple Quad 5500+ instrument, after separation on a HALO 160A ES-C18, 2.7 μm 2.1-50 mm column. Quantitation was performed using a calibration curve prepared in blank plasma or blank brain homogenate. The software WinNonlin (Phoenix™) was used for pharmacokinetic analysis from the concentrations versus time data, including the AUCinf and AUClast. The Kp ratio (total brain concentration over total plasma concentration) was calculated as (AUCtot,br)/(AUCtot,pl).
# The unbound brain exposure was assessed as Kpuu, which is the free brain/free plasma concentration ratio (Cu,br/Cu,pl). The Cu,br/Cu,pl ratios were obtained from in vivo total brain to plasma ratios (Ctot,br/Ctot,pl) by using in vitro determined Fu,br and Fu,pl.
# Plasma protein binding and brain homogenate protein binding were measured by equilibrium dialysis in a HTDialysis plate. The dialysis membranes were soaked in ultrapure water for 60 minutes to separate strips, then in 20% ethanol for 20 minutes, finally in dialysis buffer for 20 minutes. The dialysis set up was assembled according to the manufacturer's instruction. Each cell received 150 μL of plasma or brain homogenate spiked with 1 mM of compound, and dialyzed against an equal volume of dialysis buffer (PBS). The dialysis plate was sealed and incubated in an incubator at 37° C. with 5% CO2 at 100 rpm for 6 hours. At the end of incubation, compound concentration was measured in both chambers by LC-MS/MS on a Triple Quad™ 5500 from AB Inc after separation on a XSelect Hss T3 2.5μ (2.1×30 mm) column. Free fraction (Fu) was calculated as (Peak Area Ratio buffer chamber/Peak Area Ratio plasma chamber).
# Kpuu was calculated as (AUCtot,br×Fu,br)/(AUCtot,pl×Fu,pl).
# The below table also assigns each compound a code for kp and kpu,u values: A or B. According to the code. A represents a value of >0.3 and B represents a value of ≤0.3. […] The kpu,u was then calculated upon correcting this kp value with mouse plasma protein binding and mouse brain homogenates binding. A Kpu,u value >0.3 is brain penetrant, and Kpu,u value less than or equal to 0.3 is not brain penetrant. N.D.=not determined. The corresponding raw kp and kpu,u data is also included.
# [2] = Solubility in phosphate buffered solution (PBS, pH 7.4); format: physicochemical; settings: for solubility at 2 h: phosphate buffered solution (PBS), aqueous buffer, kinetic from dmso stock; for increase in solubility (PBS, pH 7.4) compared to Comparative Example 3: relative to Comparative Example 3 (6.7 uM)
# Protocol: In additional embodiments, the solubility of compounds of the instant disclosure may be determined following known procedures, such as described in Alsenz and Kansy, Advanced Drug Delivery Reviews (2007) 59:546-567, and Wang et al. J Mass Spectrom. (2000) 35:71-76. For example, the kinetic solubility in physiologically relevant media, such as phosphate buffered solution (PBS, pH 7.4) or simulated gastric fluid (SGF), may be measured using serial dilution and two hour incubation period, followed by filtration, and reported in μM by LC-MS/MS. Thermodynamic solubility in physiologically relevant media may be measured by LC-MS/MS, after a twenty-four hour incubation, followed by filtration, and reported in mg/mL. Optimized solubility may be beneficial for manufacturing and further processing of the compound. Furthermore, optimized solubility allows for a more efficient in vitro analysis of the compound, including data collection around the compound's safety, drug-drug interactions, potency, selectivity, metabolism, and permeability. […]
# [3] = whole brain AUC over 24 h divided by plasma AUC, read-out: kp (code)
# [4] = whole brain AUC over 24 h divided by plasma AUC, read-out: kp (raw)
# [5] = kp corrected with mouse plasma protein binding and mouse brain homogenate binding
SMILES,IC50 (NLRP3),"Kp at 24 h [1, 3]","Kp at 24 h [1, 4]","Kpu,u (unbound brain-to-plasma ratio) [1, 5]",kp (code) ([1]; whole brain AUC over 24 h divided by plasma AUC),"kpu,u (code) [1, 5]",solubility at 2 h [2],"increase in solubility (PBS, pH 7.4) compared to Comparative Example 3 [2]","kpu,u (raw) [1, 5]"
"CC1(C)C[C@H](Nc2nnc(-c3ccc(OC(F)F)cc3O)c3ccncc23)CO1 (single isomer, unassigned) [Compound 9*]",260 nM,> 0.3,0.4,0.63,A (A represents a value of >0.3),A (A represents a value of >0.3),45 µM,7 fold,
"CC1(C)C[C@@H](Nc2nnc(-c3ccc(OC(F)F)cc3O)c3ccncc23)CO1 (single isomer, unassigned) [Compound 9B*]",61 nM,≤ 0.3,0.24,0.52,,A (A represents a value of >0.3),45 µM,7 fold,
"Cc1cc(O)c(-c2nnc(N[C@H]3COC(C)(C)C3)c3cnccc23)c(F)c1 (single isomer, unassigned) [Compound 21*]",460 nM,> 0.3,0.3,0.76,,A (A represents a value of >0.3),250 µM,37 fold,
"Cc1cc(C)c(-c2nnc(N[C@H]3COC(C)(C)C3)c3cnccc23)c(O)c1 (single isomer, unassigned) [Compound 24*]",330 nM,≤ 0.3,0.05,,,,290 µM,43 fold,
"Cc1cc(O)c(-c2nnc(N[C@H]3COC(C)(C)C3)c3cnccc23)c(Cl)c1 (single isomer, unassigned) [Compound 26*]",900 nM,≤ 0.3,0.1,0.17,,B (B represents a value of ≤0.3),280 µM,42 fold,
"CC1(C)C[C@@H](Nc2nnc(-c3ccc(Cl)cc3O)c3ccncc23)CO1 [Comparative Example 3, (R)-5-chloro-2-(4-((5,5-dimethyltetrahydrofuran-3-yl)amino)pyrido[3,4-d]pyridazin-1-yl)phenol, reference compound]",,> 0.3,0.4,,,A (A represents a value of >0.3),6.7 µM,,0.43
"[2H]C([2H])([2H])OC(C)(C)CNc1nnc(-c2ccc(C(F)F)cc2O)c2ccncc12 [Compound 2, 5-(difluoromethyl)-2-(4-((2-(methoxy-d3)-2-methylpropyl)amino)pyrido[3,4-d]pyridazin-1-yl)phenol]",160 nM,≤ 0.3,0.24,2.2,,A (A represents a value of >0.3),,,
"Cc1ccc(-c2nnc(N[C@H]3COC(C)(C)C3)c3cnccc23)c(O)c1 [Compound 5, (R)-2-(4-((5,5-dimethyltetrahydrofuran-3-yl)amino)pyrido[3,4-d]pyridazin-1-yl)-5-methylphenol]",220 nM,> 0.3,0.44,0.94,,A (A represents a value of >0.3),180 µM,27 fold,
"OCC1(CNc2nnc(-c3ccc(Cl)cc3O)c3ccncc23)CC1 [Compound 8, 5-chloro-2-(4-(((1-(hydroxymethyl)cyclopropyl)methyl)amino)pyrido[3,4-d]pyridazin-1-yl)phenol, reference compound]",200 nM,,0.18,0.11,,B (B represents a value of ≤0.3),,,
